In experiment [1] the test system is RAC1-dependent membrane ruffle formation in NIH 3T3 cells. The experiment in a line: EGF-induced membrane ruffle formation. The class given is cell-based. How it is done: Figure 2 Identification of a new RAC1 inhibitor (A) Effect of A41 and NSC23766 on ruffle formation (white arrows) induced by EGF (10 ng/mL) in NIH 3T3 cells in serum-free culture medium (CTL). Inhibitors were added at indicated concentration 1 h prior to EGF stimulation. To assess cytoskeleton organization, cells were incubated with Alexa Fluor 488 phalloidin to visualize F-actin. Results shown are representative of 3 independent experiments. Corresponding concentration-response curves have been established by counting the percentages of cells with ruffles (scale bars: 10 μm). (B) Immunoblot analysis and associated quantification of RAC-GTP level and total RAC expression in NIH 3T3 cells stimulated by EGF (10 ng/mL, 5 min) and pre-incubated or not (−) with NSC23766, A41, or A415 at 10^−5 M for 1 h (∗∗∗p < 0.001 vs. controls without EGF stimulation, ^###p < 0.001 vs. controls with EGF stimulation) (N > 3). […] (D) Representative in vitro nucleotide exchange catalyzed by the DH-PH of TIAM (10 nM) measured by the binding of fluorescent mant-GTP (1 μM) to RAC1 (0.5 μM, preloaded with GDP) in the presence of indicated concentrations of A41 (out of N = 6). […] (E) Kobs and Kmax were determined in each condition (N = 6). […]
After indicated treatments, cells were fixed with 4% paraformaldehyde and permeabilized in PBS 0.5% Triton X-100. […] Cancer cells were detected with firefly luciferase antibody (ab21176, Abcam) (dilution 1/500) overnight at room temperature, followed by secondary Alexa 488-labeled anti-rabbit antibody (dilution 1/1000). […] After staining, cells were mounted in Prolong gold antifade reagent with DAPI and images were captured by a fluorescence microscope. […]
Supp. […] For each molecule, druglikeness has been assessed according to Lipinski’s rules: molecular weight (MW)<500; high lipophilicity (LogP<5); less than 5 hydrogen bond donors (HBD); less than 10 hydrogen bond acceptors (HBA). The log P was calculated by using OSIRIS – Data Warrior software. […] IC50 was determined experimentally from the inhibition

The target of experiment [2] is T1, RAC1 (Mus musculus, UniProt P63001).
T1 construct: endogenous in cells; host or cells: NIH/3T3 fibroblasts (ATCC CRL-1658), EGF-stimulated
Description: RAC-GTP pull-down assay, EGF-stimulated NIH/3T3 fibroblasts. The class given is cell-based. The settings on record: 10^-5 M, 1 h, EGF 10 ng/mL 5 min. How it is done: Figure 2 Identification of a new RAC1 inhibitor (A) Effect of A41 and NSC23766 on ruffle formation (white arrows) induced by EGF (10 ng/mL) in NIH 3T3 cells in serum-free culture medium (CTL). Inhibitors were added at indicated concentration 1 h prior to EGF stimulation. To assess cytoskeleton organization, cells were incubated with Alexa Fluor 488 phalloidin to visualize F-actin. Results shown are representative of 3 independent experiments. Corresponding concentration-response curves have been established by counting the percentages of cells with ruffles (scale bars: 10 μm). (B) Immunoblot analysis and associated quantification of RAC-GTP level and total RAC expression in NIH 3T3 cells stimulated by EGF (10 ng/mL, 5 min) and pre-incubated or not (−) with NSC23766, A41, or A415 at 10^−5 M for 1 h (∗∗∗p < 0.001 vs. controls without EGF stimulation, ^###p < 0.001 vs. controls with EGF stimulation) (N > 3). (C) Representative surface plasmon resonance (SPR) sensograms of binding of immobilized RAC1 with increasing concentrations of A41 with or without EDTA (20 mM) (N > 3). (D) Representative in vitro nucleotide exchange catalyzed by the DH-PH of TIAM (10 nM) measured by the binding of fluorescent mant-GTP (1 μM) to RAC1 (0.5 μM, preloaded with GDP) in the presence of indicated concentrations of A41 (out of N = 6). Dotted lines correspond to the experimental curves, and continuous lines represent the fit of experimental points. (E) Kobs and Kmax were determined in each condition (N = 6). (F) Predicted binding modes of A4 to the NSC23766-binding site (left) or the GDP-binding pocket of RAC1 (right). In the NSC23766-binding site of RAC1, the compound A4 (carbon atoms in blue) makes 2 hydrogen bonds (green dotted line) with Ser71 (S71) and 10 hydrophobic interactions (pink dotted line) with Ala3 (A3), Lys5 (K5), Val36 (V36), Trp56 (W56), Tyr64 (Y64), and Leu67 (L67) leading to a docking score of −6.03 kcal/mol. The GDP molecule is shown with fine line. The P loop is shown in yellow, the switch 1 in orange, and the switch 2 in green. […]
Pull-down assay using GST-PBD fusion proteins were performed on NIH-3T3 lysates to assess RAC1 activity as previously described.[63] The precipitated active RAC was subjected to SDS-PAGE and detected by immunoblot with anti-RAC1 antibody (BD biosciences) (dilution 1/1000). […]
screening molecules (10^-5 M) on NIH/3T3 cell adhesion (xCELLingence Real-time cellanalysis, Agilent), migration (CYTOO Mobility plates) and proliferation (xCELLingence Real-time cell analysis, Agilent) .The level of RAC activation is determinedby the detection of RAC-GTP (pull-down assay) in NIH/3T3 cell treated with EGF (10 ng/mL) and the differentmolecules and normalize to the level of RAC activity measuredin the presenceof the reference RAC inhibitor EHT1864.

With `CCC(=O)Nc1ccc(S(=O)(=O)Nc2cc(OC)ccc2OC)cc1` [Compound A420], the “inhibitory effect on RAC1” value in experiment [1] was “loss of the inhibitory effect on RAC1”.

Consider `COc1ccc(OC)c(NC(=O)c2ccc(NC(=O)CCSc3ccc(C)cc3)cc2)c1` [Compound A415], for which the “inhibitory effect on RAC1” value in experiment [1] is on record as “loss of the inhibitory effect on RAC1”. Moreover, the “RAC1 activation (active GTP-bound RAC1)” value in experiment [2] is recorded as “no significant effect”.

(Values after PMC12281424, “A Rac-specific competitive inhibitor of guanine nucleotide binding reduces metastasis in triple-negative breast cancer” (Cell Reports Medicine, 2025).)
